The target of experiment [1] is T1, Tyrosine-protein kinase ZAP-70 (Homo sapiens) (UniProt P43403).
T1 sequence (whole entry): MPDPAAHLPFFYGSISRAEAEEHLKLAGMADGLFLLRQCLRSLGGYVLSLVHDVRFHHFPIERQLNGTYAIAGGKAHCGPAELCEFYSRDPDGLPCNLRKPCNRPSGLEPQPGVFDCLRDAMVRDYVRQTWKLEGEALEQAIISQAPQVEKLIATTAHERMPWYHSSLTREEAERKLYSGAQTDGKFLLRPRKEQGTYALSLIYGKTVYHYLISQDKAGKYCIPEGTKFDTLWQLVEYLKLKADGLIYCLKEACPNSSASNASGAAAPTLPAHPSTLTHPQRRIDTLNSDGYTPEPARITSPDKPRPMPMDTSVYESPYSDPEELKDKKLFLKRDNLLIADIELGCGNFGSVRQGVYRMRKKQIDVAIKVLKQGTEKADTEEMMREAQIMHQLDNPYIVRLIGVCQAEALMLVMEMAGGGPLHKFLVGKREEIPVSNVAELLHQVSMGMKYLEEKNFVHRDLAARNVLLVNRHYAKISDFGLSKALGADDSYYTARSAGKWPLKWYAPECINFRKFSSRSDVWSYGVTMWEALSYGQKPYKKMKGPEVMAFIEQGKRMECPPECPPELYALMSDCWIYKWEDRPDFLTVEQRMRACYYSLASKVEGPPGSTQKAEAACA
Kind of experiment: Selectivity interaction (ActivX KiNativ screen (ex vivo kinase selectivity in human PBMCs)) EUB0001619a ZAP70. It counts as cell-based. Conditions: PBMC, at 1 µM.

Experiment [2] has as its target Microtubule-associated serine/threonine-protein kinase 3 (Homo sapiens) (UniProt O60307). Kind of experiment: Selectivity interaction (ActivX KiNativ screen (ex vivo kinase selectivity in human PBMCs)) EUB0001619a MAST3. It counts as cell-based. Conditions: PBMC, at 1 µM.
The target of experiment [3] is Ribosomal protein S6 kinase alpha-2 (Homo sapiens) (UniProt Q15349). Conditions: at 10 µM.
Experiment [4] addresses Serine/threonine-protein kinase PLK1 (Homo sapiens, UniProt P53350). The experiment can be described thus: Selectivity interaction (KinomeScan (DiscoverX)) EUB0000695a PLK1. As to conditions: at 100 nM.
Experiment [5] addresses T2, Serine/threonine-protein kinase ULK2 (Homo sapiens) (UniProt Q8IYT8).
T2 sequence (whole entry): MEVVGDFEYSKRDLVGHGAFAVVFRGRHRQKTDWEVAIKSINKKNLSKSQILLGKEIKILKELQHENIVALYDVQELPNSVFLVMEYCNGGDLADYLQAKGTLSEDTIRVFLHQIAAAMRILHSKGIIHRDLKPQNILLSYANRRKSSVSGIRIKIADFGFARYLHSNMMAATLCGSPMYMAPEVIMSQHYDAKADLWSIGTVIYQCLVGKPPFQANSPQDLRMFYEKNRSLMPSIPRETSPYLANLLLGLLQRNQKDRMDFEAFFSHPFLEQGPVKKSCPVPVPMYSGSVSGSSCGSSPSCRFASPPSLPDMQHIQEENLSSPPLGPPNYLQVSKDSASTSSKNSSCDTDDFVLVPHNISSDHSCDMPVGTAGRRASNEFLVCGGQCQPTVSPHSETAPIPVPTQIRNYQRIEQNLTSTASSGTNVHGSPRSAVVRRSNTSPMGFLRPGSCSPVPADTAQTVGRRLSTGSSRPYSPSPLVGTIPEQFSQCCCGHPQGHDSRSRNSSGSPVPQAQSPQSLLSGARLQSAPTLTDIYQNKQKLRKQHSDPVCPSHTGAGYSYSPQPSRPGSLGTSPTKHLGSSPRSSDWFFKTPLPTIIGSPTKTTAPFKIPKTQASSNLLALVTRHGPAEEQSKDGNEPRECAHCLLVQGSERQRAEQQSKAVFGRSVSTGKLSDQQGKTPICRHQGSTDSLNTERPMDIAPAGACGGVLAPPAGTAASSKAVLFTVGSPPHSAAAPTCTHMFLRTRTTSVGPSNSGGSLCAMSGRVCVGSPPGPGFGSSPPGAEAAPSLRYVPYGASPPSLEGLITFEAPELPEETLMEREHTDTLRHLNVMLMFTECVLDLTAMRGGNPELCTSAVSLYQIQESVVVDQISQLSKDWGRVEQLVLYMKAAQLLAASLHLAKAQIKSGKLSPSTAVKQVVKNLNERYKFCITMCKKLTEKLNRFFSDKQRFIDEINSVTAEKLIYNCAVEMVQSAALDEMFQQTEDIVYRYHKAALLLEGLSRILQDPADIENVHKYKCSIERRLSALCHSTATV
Kind of experiment: Selectivity interaction (KinomeScan (DiscoverX)) EUB0000695a ULK2. Conditions: at 100 nM.

Experiment [6] concerns the target T3, Serine/threonine-protein kinase Sgk3 (Homo sapiens) (UniProt Q96BR1).
T3 sequence (whole entry): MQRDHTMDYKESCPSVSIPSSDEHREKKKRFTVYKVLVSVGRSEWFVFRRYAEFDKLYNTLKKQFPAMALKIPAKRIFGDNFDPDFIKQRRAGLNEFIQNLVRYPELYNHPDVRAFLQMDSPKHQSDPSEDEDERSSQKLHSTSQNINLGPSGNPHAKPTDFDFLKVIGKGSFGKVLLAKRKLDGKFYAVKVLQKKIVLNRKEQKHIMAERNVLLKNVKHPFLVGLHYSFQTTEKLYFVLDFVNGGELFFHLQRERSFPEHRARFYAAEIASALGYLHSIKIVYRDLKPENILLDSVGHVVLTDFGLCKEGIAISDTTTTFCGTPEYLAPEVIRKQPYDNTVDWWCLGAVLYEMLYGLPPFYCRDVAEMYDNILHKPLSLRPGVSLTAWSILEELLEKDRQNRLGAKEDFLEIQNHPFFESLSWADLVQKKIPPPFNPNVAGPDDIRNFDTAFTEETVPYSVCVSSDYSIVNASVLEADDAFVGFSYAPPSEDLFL
Kind of experiment: Selectivity interaction (KinomeScan (DiscoverX)) EUB0000666a SGK3. As to conditions: at 10 µM.

Experiment [7] addresses Protein kinase C theta type (Homo sapiens, UniProt Q04759). Conditions: at 10 µM.
Experiment [8] concerns the target BDNF/NT-3 growth factors receptor (Homo sapiens) (UniProt Q16620). The experiment can be described thus: Selectivity interaction (KinomeScan (DiscoverX)) EUB0000618a NTRK2. As to conditions: at 10 µM.
In experiment [9] the target is Serine/threonine-protein kinase pim-3 (Homo sapiens) (UniProt Q86V86). Kind of experiment: Selectivity interaction (KinomeScan (DiscoverX)) EUB0000092b PIM3. As to conditions: at 10 µM.
The target in experiment [10] is Histone-lysine N-methyltransferase, H3 lysine-79 specific (Homo sapiens, UniProt Q8TEK3). The experiment can be described thus: Selectivity interaction (Methyltransferase screen (radiometric assays, panel of 8 PRMTs, 21 protein lysine methyltransferases, 3 DNA methyltransferases, and one RNA methyltransferase)) EUB0000271b DOT1L.
Sequence of Histone-lysine N-methyltransferase, H3 lysine-79 specific (Q8TEK3 whole entry, looked up): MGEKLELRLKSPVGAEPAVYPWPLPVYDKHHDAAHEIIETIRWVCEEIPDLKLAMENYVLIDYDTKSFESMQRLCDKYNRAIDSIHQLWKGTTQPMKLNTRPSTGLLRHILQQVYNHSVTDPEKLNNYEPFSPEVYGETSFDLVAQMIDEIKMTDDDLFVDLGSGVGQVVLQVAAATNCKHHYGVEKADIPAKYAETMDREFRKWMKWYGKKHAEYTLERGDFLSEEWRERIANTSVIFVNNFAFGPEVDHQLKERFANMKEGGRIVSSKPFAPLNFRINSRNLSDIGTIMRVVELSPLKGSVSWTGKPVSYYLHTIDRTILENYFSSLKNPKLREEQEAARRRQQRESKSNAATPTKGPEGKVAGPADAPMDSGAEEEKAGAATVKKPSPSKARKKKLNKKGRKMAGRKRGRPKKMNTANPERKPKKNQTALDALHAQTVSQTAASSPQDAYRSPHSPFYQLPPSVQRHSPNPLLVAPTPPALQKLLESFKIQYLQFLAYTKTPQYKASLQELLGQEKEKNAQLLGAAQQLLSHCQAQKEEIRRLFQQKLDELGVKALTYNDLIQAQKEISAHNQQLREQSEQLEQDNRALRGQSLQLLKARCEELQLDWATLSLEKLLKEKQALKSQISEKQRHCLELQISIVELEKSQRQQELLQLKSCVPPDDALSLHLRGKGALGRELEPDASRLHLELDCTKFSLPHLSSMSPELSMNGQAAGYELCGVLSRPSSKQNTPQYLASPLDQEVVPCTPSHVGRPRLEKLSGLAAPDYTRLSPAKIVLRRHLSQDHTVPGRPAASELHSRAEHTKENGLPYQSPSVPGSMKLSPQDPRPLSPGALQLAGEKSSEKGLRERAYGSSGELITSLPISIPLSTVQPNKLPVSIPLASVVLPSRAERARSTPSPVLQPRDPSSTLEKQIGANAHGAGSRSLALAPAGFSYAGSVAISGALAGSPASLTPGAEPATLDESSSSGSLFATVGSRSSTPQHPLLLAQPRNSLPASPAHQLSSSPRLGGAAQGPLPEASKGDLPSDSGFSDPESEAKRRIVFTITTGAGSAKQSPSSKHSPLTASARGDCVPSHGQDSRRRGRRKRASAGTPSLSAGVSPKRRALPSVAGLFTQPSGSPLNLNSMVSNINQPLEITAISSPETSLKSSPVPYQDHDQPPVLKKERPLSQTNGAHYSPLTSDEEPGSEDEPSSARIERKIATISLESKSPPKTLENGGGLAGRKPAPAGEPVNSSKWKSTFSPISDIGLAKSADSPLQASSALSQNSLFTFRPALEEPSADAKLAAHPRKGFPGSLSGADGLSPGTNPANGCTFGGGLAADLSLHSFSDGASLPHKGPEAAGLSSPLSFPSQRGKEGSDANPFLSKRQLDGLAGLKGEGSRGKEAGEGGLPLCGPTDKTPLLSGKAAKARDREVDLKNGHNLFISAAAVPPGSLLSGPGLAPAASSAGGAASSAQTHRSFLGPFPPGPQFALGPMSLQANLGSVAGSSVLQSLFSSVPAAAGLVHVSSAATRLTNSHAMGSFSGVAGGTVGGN
The target of experiment [11] is Serine/threonine-protein kinase MRCK alpha (Homo sapiens) (UniProt Q5VT25). Kind of experiment: Selectivity interaction (Kinase panel (DSF assay)) EUB0001558a CDC42BPA.
The next experiment addresses D(1A) dopamine receptor (Homo sapiens, UniProt P21728). Kind of experiment: Selectivity interaction (GPCR panel (PDSP screen)) EUB0001079a DRD1. As to conditions: at 10 µM.

Sequence of BDNF/NT-3 growth factors receptor (Homo sapiens) (Q16620 32-822 limits assumed): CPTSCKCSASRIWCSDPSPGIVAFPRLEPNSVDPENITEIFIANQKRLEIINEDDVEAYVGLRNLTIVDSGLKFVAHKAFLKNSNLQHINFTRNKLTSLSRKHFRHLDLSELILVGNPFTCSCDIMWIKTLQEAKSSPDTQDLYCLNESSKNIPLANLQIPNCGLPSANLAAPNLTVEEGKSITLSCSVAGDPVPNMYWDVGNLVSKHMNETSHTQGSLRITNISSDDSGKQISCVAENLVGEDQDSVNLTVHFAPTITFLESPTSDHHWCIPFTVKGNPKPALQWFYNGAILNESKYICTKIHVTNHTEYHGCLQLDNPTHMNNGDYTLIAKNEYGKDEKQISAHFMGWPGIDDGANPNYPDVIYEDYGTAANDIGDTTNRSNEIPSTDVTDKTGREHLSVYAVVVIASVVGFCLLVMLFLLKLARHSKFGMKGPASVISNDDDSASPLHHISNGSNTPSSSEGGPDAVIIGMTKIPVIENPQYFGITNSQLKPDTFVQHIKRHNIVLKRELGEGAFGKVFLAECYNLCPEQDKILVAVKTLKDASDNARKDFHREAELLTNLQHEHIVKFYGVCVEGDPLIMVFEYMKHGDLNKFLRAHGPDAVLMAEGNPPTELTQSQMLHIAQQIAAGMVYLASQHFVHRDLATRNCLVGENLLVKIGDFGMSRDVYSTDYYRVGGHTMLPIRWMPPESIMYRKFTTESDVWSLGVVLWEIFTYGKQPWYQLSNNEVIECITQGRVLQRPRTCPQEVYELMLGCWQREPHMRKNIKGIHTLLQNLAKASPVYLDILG
Sequence of Microtubule-associated serine/threonine-protein kinase 3 (Homo sapiens) (O60307 whole entry): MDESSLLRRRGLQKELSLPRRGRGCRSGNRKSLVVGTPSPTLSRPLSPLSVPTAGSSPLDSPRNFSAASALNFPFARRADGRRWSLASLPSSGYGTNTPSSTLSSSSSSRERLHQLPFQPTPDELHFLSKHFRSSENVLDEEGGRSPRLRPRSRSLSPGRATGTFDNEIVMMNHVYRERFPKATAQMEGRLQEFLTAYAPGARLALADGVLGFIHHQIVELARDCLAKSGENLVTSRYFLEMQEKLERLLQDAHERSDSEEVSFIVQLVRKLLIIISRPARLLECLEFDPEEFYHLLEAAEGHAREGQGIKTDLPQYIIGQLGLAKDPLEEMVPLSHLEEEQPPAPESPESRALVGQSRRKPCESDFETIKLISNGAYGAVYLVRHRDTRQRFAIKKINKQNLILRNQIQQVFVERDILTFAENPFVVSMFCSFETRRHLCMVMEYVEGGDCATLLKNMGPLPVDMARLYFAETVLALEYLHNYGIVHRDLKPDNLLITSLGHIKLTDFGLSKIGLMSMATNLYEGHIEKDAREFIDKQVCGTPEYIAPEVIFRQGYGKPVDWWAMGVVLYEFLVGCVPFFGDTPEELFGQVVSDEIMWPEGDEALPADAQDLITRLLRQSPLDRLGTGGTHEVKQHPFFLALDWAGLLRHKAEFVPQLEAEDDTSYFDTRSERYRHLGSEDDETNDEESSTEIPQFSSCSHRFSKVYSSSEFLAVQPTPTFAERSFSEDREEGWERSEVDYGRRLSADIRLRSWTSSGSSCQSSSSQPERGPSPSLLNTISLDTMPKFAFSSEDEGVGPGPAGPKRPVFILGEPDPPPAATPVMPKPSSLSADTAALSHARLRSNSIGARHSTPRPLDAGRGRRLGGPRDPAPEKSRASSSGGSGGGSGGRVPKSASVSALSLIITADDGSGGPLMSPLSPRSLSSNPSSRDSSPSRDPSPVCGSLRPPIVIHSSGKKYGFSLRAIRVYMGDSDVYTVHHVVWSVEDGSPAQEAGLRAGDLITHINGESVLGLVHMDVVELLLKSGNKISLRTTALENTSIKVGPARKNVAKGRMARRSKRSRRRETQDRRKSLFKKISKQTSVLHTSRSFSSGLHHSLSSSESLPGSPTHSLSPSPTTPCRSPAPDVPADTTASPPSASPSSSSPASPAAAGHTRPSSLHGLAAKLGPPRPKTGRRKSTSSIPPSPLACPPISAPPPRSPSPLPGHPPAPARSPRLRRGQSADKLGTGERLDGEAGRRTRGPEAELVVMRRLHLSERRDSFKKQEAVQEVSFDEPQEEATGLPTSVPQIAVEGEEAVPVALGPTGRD
Sequence of D(1A) dopamine receptor (P21728 whole entry): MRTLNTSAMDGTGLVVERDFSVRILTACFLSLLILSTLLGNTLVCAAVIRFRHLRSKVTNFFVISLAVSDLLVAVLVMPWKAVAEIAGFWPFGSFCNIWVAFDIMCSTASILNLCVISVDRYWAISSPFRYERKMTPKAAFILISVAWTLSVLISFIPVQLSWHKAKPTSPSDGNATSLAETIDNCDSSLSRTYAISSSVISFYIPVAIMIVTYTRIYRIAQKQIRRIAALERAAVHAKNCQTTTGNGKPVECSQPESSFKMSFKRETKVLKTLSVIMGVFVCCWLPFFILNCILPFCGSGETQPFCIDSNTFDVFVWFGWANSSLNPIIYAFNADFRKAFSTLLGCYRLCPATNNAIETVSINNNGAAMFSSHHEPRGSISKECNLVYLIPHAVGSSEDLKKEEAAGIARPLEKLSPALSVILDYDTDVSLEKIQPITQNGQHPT
Sequence of Serine/threonine-protein kinase PLK1 (P53350 whole entry): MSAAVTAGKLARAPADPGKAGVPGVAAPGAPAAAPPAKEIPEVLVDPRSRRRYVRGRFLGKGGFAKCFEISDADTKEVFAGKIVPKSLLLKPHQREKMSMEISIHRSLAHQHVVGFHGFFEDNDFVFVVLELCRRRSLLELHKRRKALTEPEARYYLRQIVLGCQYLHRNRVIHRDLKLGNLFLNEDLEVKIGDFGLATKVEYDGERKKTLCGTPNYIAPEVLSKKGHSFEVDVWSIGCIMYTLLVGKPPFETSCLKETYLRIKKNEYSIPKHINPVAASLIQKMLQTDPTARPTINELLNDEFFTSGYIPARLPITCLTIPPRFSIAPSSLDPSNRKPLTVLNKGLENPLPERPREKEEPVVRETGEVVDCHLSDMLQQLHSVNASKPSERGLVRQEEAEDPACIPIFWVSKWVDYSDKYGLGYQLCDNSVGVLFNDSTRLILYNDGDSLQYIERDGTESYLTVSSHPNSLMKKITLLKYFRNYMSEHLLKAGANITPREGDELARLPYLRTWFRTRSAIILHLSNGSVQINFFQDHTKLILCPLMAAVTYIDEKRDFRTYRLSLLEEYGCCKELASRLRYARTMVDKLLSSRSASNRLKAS

Consider `N#Cc1cccc(-c2c[nH]c3ncnc(N4CCOCC4)c23)c1`, for which the results for the % of inhibition in experiment [1] and in experiment [2] were -3% and 1%, respectively. In the case of `CCN(CC)CCCCNc1ncc2cc(-c3cc(OC)cc(OC)c3)c(NC(=O)NC(C)(C)C)nc2n1`, the % of control in [3] is 100%. On to `Cc1cc(F)c(C(=O)Nc2cccc(-c3nncn3C(C)C)n2)cc1-n1cnc(C2CC2)c1`, for which the results for the % of control in [4] and in experiment [5] were 100% and 91%, respectively.

In turn, `O=C(NOC[C@H](O)CO)c1ccc(F)c(F)c1Nc1ccc(I)cc1F` yielded a % of control in [6] of 89%. `Cc1cc([C@@H](C)Nc2ccccc2C(=O)O)c2nc(N3CCOCC3)cc(=O)n2c1` [AZD-6482] returned a % of control in [7] of 97%. In [8], `O[C@H]1CC[C@H](Nc2ncc3nc(Nc4c(F)cc(F)cc4F)n([C@H]4CCOC4)c3n2)CC1` gave a % of control of 79%.

`CCC(=O)N1CCN(c2ccc(-n3c(=O)ccc4cnc5ccc(-c6cnc7ccccc7c6)cc5c43)cc2C(F)(F)F)CC1` showed a % of control in experiment [9] of 96%. Take `Cc1cc(C)cc([C@@H]2c3cc(C)ccc3NC(=O)CN2C(=O)c2ccc(Br)s2)c1`: the % of activity in experiment [10] (at 1 µM) was 102%; in [10] (at 10 µM) it was 92.7%. `CC(C)(O)[C@H](F)CN1Cc2cc(NC(=O)c3cnn4cccnc34)c(N3CCOCC3)cc2C1=O` came in with a dTM in experiment [11] of 0.2 K. Regarding `Nc1cnc(N2CCc3cc(S(=O)(=O)Nc4c(F)cc(Cl)cc4F)cc(N4CCCC4=O)c32)nc1` [TP-020n], the % of inhibition on D(1A) dopamine receptor is -8.35%.
